Measured values as given in patent publication US11001802B2, “Surface of a vessel with polystyrene, nitrogen, oxygen and a static sessile contact angle for attachment and cultivation of cells” (Nunc A/S, priority 2008, dated 2021).

Legend:
[1] = tested on: HEK293 cells; experiment: HEK293 attachment and growth, culture confluence by IncuCyte Plus (Examples 20, 21); type: cell-based, human
Experimental: HEK293 cells were maintained in EMEM (Lonza) containing 10% FBS (Lonza). Cells were passaged at 70-80% confluence using Trypsin/EDTA for dissociation, and seeded at c 2.0×10^4 cells/cm^2 in 75-cm^2 flasks with Nunclon Delta™ surface (Thermo Fisher Scientific, Roskilde, Denmark).
EMEM (500 μl) supplemented with 10% FBS containing 1.0, 5.0, 10, 15 or 20 μM Y-27632 (Sigma Chemical Co.), or 0.4, 1.2, 1.6, 2.4 or 2.8 μM H-1152 (Calbiochem, EMD Chemicals Inc., Darmstadt, Germany) was dispensed in Multidish 24-well plates with either Surface 4 or a non-treated (but gamma irradiated; 25 kGy) polystyrene surface. Another 500 μl of EMEM supplemented with 10% FBS and containing HEK293 cells were added to the wells (2.0×10^4 cells/cm^2). The cultures were placed in an IncuCyte™ Plus (Essen Instruments, Michigan, USA) and incubated at 37° C. in a humidified atmosphere of 5% CO2 in air. The IncuCyte™ Plus is an automated imaging platform, configured to fit inside a CO2 incubator, and designed to provide kinetic, non-invasive live cell imaging by acquiring phase contrast images of the cells at user-defined times and locations within the cultures. The primary metric of the instrument is culture confluence, that is, the fraction of the surface that is covered by cells. The HEK293 cells were incubated for 72 hours without manipulations, and images were collected every two hours at 9 positions in triplicate cultures. Culture confluence was determined using the IncuCyte™ Plus software (v. 3.4.1.25966).
EMEM (1.0 ml) supplemented with 10% FBS containing 0.4, 0.8, 1.2, 1.6, 2.0, 2.4 or 2.8 μM H-1152 was dispensed in Multidish 12-well plates with Surface 4. Another 1.0 ml of EMEM supplemented with […] and containing HEK293 cells were added to the wells (4.0×10^4 cells/cm^2). The cultures were placed in an IncuCyte™ Plus, and incubated at 37° C. in a humidified atmosphere of 5% CO2 in air for 42 hours (images were collected every 6 hours). One ml of culture medium was then removed by pipetting, and 1.0 ml EMEM supplemented with 10% FBS containing 0.2, 0.4, 0.6, 0.8, 1.0, 1.2 and 1.4 μM H-1152 was added. The cultures were placed in the IncuCyte™ Plus again, and images were collected every hour over the following 25 hours. Images were collected at 9 positions in triplicate cultures, and culture confluence was determined using the IncuCyte™ Plus software. Images from the IncuCyte™ Plus collected at specific positions in HEK293 cell cultures grown in the absence or presence of H-1152 (0.6 μM) was retrieved and presented as phase-contrast micrographs for the comparison of HEK293 culture morphology at the following time points: start of incubation (0 hours), just before medium change (42 hours), 1 hour after the medium change (43 hours), and, finally, after 52 hours of incubation.

[2] = tested on: human ES cell line H9; experiment: Attachment and colony formation of H9 human ES cells on surface modified plates with Rho kinase inhibitors (crystal violet, image analysis); type: cell-based; settings: H9 on surface modified plates 2, 3, 4 and 13; crystal violet; Y-27632 at 10 μM
Experimental: Human ES cells of the line H9, at passage 40 were maintained in MEF conditioned media on Nunclon Delta™ plates treated with a 1:30 dilution of growth factor reduced Matrigel™, prior to study. Cells were dissociated from the surface for passage by 1 mg/ml collagenase dissociation or by manual scraping.
These cells were then seeded onto surface modified plates 2, 3, 4 and 13 (12-well format) in the presence of increasing amounts one of the following Rho Kinase inhibitors: Y-27632 (from Sigma, St. Louis, Mo. or EMD, San Diego, Calif.), Fasudil (Sigma), or Hydroxyfasudil (Sigma), and maintained for 3 days, each day replacing the media and compound. At the end of day three, media was removed and the plates were stained with Crystal Violet (0.5% in water) to visualize colonies.
It was attempted to determine the optimal dose of Y-27632 to promote cell binding, by treating cells with a range of plating concentrations of Y-27632 for the first day of culture. After the first day in culture cells were treated on subsequent days with a 10 μM concentration of Y-27632. It was observed that the maximal concentration to stimulate attachment and growth of ES cells was 10 μM (FIG. 12) and that this occurred on surface modified plates 2, 3, 4, 13 and CellBIND™ (Corning, Corning, N.Y.).
The effect of treating the cells continuously with a single dose of Y-27632 on attachment and growth was also tested. The cells were dosed with 0, 1, 4, or 10 μM Y-27632 for 4 days. Some binding was observed on surface modified plates without treatment (0 μM), however the optimal concentration to stimulate attachment and growth of ES cells was 10 μM Y-27632 (Table 4) on surface modified plates 2, 3, 4, 13.

Row | SMILES | effect of change of 50% of the medium after 42 hours on culture confluence ([1]; Surface 4, 0.2 μM or 0.4 μM H-1152) | effect of change of 50% of the medium after 42 hours on culture confluence ([1]; Surface 4, 0.6 μM, 0.8 μM or 1.4 μM H-1152) | attachment and growth of HEK293 cells ([1]; Surface 4, increasing concentration) | growth and attachment of HEK293 cells ([1]; non-treated polystyrene surface, 10 μM Y-27632, 0.6-1.2 μM H-1152) | attachment of ES cell colonies by day three [2]
1 | Cc1cncc2cccc(S(=O)(=O)N3CCCNC[C@@H]3C)c12 [Surface H-1152, H-1152] | significant reduction in culture confluence | minimal | enhances attachment and growth | slightly enhanced | 
2 | O=S(=O)(c1cccc2cnccc12)N1CCCNCC1 [Fasudil] |  |  |  |  | some colonies could be observed to attach and grow
3 | O=c1[nH]ccc2c(S(=O)(=O)N3CCCNCC3)cccc12 [Hydroxyfasudil] |  |  |  |  | some colonies could be observed to attach and grow
